According to PMC12292521, “Discovery of a Potent Antimicrobial Peptide Through Rational Design: A New Frontier in Pathogen Control” (Biomolecules, 2025):
≈ marks a conversion by molar mass, not a printed value. Where two headings read alike, the source gives them in different places. Peptide text beside a SMILES is read from it.

How the values were obtained:
[1] = system: Monophasic Salmonella Typhimurium; type: cell-based, monophasic variant of Salmonella Typhimurium; settings: Monophasic murium, 6 h
Protocol: (§1) To assess the antimicrobial potential of the designed peptide, different strains of Gram-negative and Gram-positive bacteria were evaluated. Pseudomonas aeruginosa was an ATCC (27853) strain, while Escherichia coli, Listeria monocytogenes, Staphylococcus aureus, Campylobacter jejuni, Salmonella Typhimurium, the monophasic variant of Salmonella Typhimurium and Salmonella Napoli were isolated from food products by the Laboratory of Microbiological Food Control—Department of Food Microbiology of the Istituto Zooprofilattico Sperimentale del Mezzogiorno (IZSM) in Portici (Naples, Italy).
(§2) In accordance with the Clinical & Laboratory Standards Institute guidelines (CLSI, 2015), the Minimum Bactericidal Concentration (MBC), defined as the minimum concentration of peptide required to kill 99.9% of the tested bacterial suspension within a defined time interval, was determined. L. monocytogenes, E. coli, S. aureus, S. Typhimurium, monophasic variant of S. Typhimurium, S. Napoli, and P. aeruginosa were cultured at 37 °C in buffered peptone water (Thermo Fisher, Milan, Italy), while C. jejuni was cultured in Bolton Broth (Oxoid, Madrid, Spain). The bacterial suspension was collected and then diluted in fresh broth to a final concentration of 1.0 × 10^3 or 1.0 × 10^5 colony-forming units (CFUs)/mL. […] Samples containing only cell suspension and DMSO were used as controls. […]

Campylobacter jejuni = type: cell-based; settings: 6 h
Protocol: as §1, §2

Salmonella Napoli = type: cell-based; settings: 6 h
Protocol: as §1, §2

[2] = system: Acinetobacter baumannii (CRAB); type: cell-based
Protocol: (§3) Therefore, the minimum inhibitory concentration (MIC) and MBC were evaluated. […] Subsequently, the antibiofilm activity of the peptide was tested according to Festa et al.. Specifically, two different concentrations of peptide were used, corresponding to ½ and ¼ of the estimated MIC value, which guarantee the optimal bacterial growth conditions necessary to allow biofilm production. Biofilm production (%) was calculated based on Optical Density (measured at 630 nm) outputs, compared to the control group.

[3] = system: Enterococcus faecium (VREfm); type: cell-based; settings: broth microdilution, 96-well, RKW 1-75 μM
Protocol: as §3

[4] = system: Staphylococcus aureus (MRSA); type: cell-based; settings: for MIC: broth microdilution, 96-well, RKW 1-75 μM
Protocol: as §3

[5] = Conformational stability by CD and fluorescence spectroscopy in SDS; type: physicochemical
Protocol: The secondary structure elements of the antimicrobial molecule were analyzed in a 0.1 cm optical path-length quartz cuvette (Hellma Analytics, Milan, Italy) using Jasco J-810 Circular Dichroism Spectropolarimeter (JASCO, Tokyo, Japan). All spectra were recorded at 25 °C in a wavelength range of 190–250 nm with a 1 nm bandwidth, a scanning speed of 20 nm/min, and averaged over five scans. The spectra as a function of SDS concentration (3, 50, and 150 mM) were obtained at 50 μM final concentration of peptide in 10 mM Tris-HCl buffer, pH 7.0. The folding kinetic analysis of the peptide was carried out after the addition of SDS (50 mM) to the sample (50 μM in 10 mM Tris-HCl, pH 7.0), up to 24 h incubation. […] Next, 50 mM of SDS was added to each sample, which was analyzed by CD spectroscopy after 48 h of incubation at 25 °C. […] All CD spectra of RKW were corrected by subtracting a blank spectrum of a sample containing all components except the peptide (baseline correction). The mean residue ellipticity ([θ], deg. cm^2 dmol^−1) was obtained by the equation [θ] = 100 θ/cnl, where θ is the ellipticity (mdeg), c is the peptide concentration (mM), n is the number of residues, and l is the path length (cm).
Fluorescence experiments were conducted in a Shimadzu RF-6000 spectrofluorometer (Kyoto, Japan). The analyses were performed by setting an excitation and emission slit width of 5 nm and using a quartz cell with a path length of 1 cm. The intrinsic tryptophan residues were excited at a wavelength of 280 nm, following the emission between 300 and 400 nm. The effects of SDS on the peptide folding, the folding kinetics, and the thermal and the pH stability were monitored as described in Section 2.2.

[6] = inoculum 5 × 10^3 CFU/mL (3 Log)
[7] = inoculum 5 × 10^5 CFU/mL (5 Log)

CC[C@H](C)[C@H](NC(=O)[C@H](Cc1c[nH]c2ccccc12)NC(=O)[C@H](CCCCN)NC(=O)[C@@H](N)CCCNC(=N)N)C(=O)N[C@@H](CC(C)C)C(=O)N[C@@H](CCCCN)C(=O)N[C@@H](Cc1c[nH]c2ccccc12)C(=O)N[C@@H](CC(C)C)C(=O)N[C@@H](CCCNC(=N)N)C(=O)N[C@H](C(=O)N[C@@H](Cc1c[nH]c2ccccc12)C(=O)N[C@@H](CCCCN)C(=O)N[C@@H](CCCCN)C(N)=O)[C@@H](C)O [RKW] (H-RKWILKWLRTWKK-NH2; N-terminus assumed)
MBC [1]: 20 µM (≈ 36.8 µg/mL)
MBC (Campylobacter jejuni): 80 µM (≈ 147 µg/mL)
MBC (Salmonella Napoli): 20 µM (≈ 36.8 µg/mL)
MBC [2]: 50 µM (≈ 92.1 µg/mL)
MIC [3, 6]: 20 µM (≈ 36.8 µg/mL)
MIC [3, 7]: 20 µM (≈ 36.8 µg/mL)
MBC [4]: 50 µM (≈ 92.1 µg/mL)
MIC [4, 6]: 50 µM (≈ 92.1 µg/mL)
MIC [4, 7]: 50 µM (≈ 92.1 µg/mL)
α-helical conformation over time in SDS ([5]; 50 μM peptide, 10 mM Tris-HCl pH 7.0, 50 mM SDS, 25 °C, up to 24 h, CD and fluorescence): did not markedly change its α-helical conformation
Helical content at extreme acidic pH ([5]; 50 μM peptide, 10 mM glycine-HCl pH 2.0, 50 mM SDS, 48 h at 25 °C, CD): entirely disordered
Structural and folding stability in SDS micellar solution under other pH and temperature conditions ([5]; 50 μM peptide, 50 mM SDS, pH 7.0 and 11.0 at 25 °C, 4, 37 and 90 °C at pH 7.0, 48 h, CD and fluorescence): not markedly affected
Time the α-helical conformation remains stable in a wide range of pH and temperature ([5]; membrane-like environment (SDS), abstract): at least 48 h
